Measured values taken from patent US7781565B2 (priority 2006, dated 2010).
Entries after “also recorded” stand apart in the source; their conditions may differ.

What follows are substances tested on NCI-60 cell lines.
Assay type: cell-based, human

| Substance | Cell Line with which the peptide (and its tripeptide motif) is associated | Cell Line the peptide is associated with (peptide recovered from phage library selection on this NCI-60 cell line) | Cell Line (NCI-60 cell line the peptide and its motif are associated with) | Cell Line (NCI-60 cell line the peptide is associated with) |
| --- | --- | --- | --- | --- |
| AVWRLSH | H322-Lung |  |  |  |
| AVYRAGR | H522-Lung |  |  |  |
| AVYVGRL |  | NCI/ADR-RES Breast |  |  |
| AWAGGDM |  |  | DU-145 Prostate |  |
| AWLLSGR |  |  | UACC 257 Melanoma |  |
| AWRHAGG |  |  |  | SNB-19 CNS; also recorded: SF-539 CNS |
| AYYSLRS |  |  |  | KM-12C Colon |
| CAGRARR |  |  |  | SNB-75 CNS |
| CGARGAA | H322-Lung |  |  |  |
| CGAVAEW |  |  | PC3 Prostate |  |
| CGEGLVV |  |  | DU-145 Prostate |  |
| CHARGVT | Molt-4-Leukemia |  |  |  |
| CMAGSQD |  | SN12C Renal |  |  |
| CMLRSAT |  |  | SK-MEL-2 Melanoma |  |
| CPGSGII |  |  |  | LOX-IMVI Melanoma |
| CQGLVLQ | K-562-Leukemia |  |  |  |
| CRGSIGA |  | BT-549 Breast |  |  |
| CRRSSLL |  |  | SK-MEL-2 Melanoma |  |
| CTAGSVS |  |  | IGROV1 Ovarian |  |
| CVGLGCH |  |  | OVCAR-4 Ovarian |  |
| DAGGMDL |  |  |  | HT-29 Colon |
| DAGRTID | Hop-62-Lung |  |  |  |
| DAGSDRR | EKVX-Lung |  |  |  |

| Substance | Cell Line with which the peptide (and its tripeptide motif) is associated | Cell Line the peptide is associated with (peptide recovered from phage library selection on this NCI-60 cell line) | Cell Line (NCI-60 cell line the peptide and its motif are associated with) | Cell Line (NCI-60 cell line the peptide is associated with) |
| --- | --- | --- | --- | --- |
| DAVRGPS |  |  | IGROV1 Ovarian |  |
| DDGRVHR |  | BT-549 Breast |  |  |
| DEGGSRW |  |  | IGROV1 Ovarian |  |
| DEGLRSR |  |  |  | HCT-116 Colon |
| DELGSVQ |  | TK-10 Renal |  |  |
| DENRAGL |  |  | DU-145 Prostate |  |
| DFTLGSS |  | MDA-MB-231 Breast |  |  |
| DGAGSLR |  |  | OVCAR-5 Ovarian |  |
| DGAVILH |  |  | UACC 257 Melanoma |  |
| DGEGAGL |  |  |  | SNB-75 CNS |
| DGGGRVG |  | CAIK-1 Renal |  |  |
| DGGLNDC |  |  | OVCAR-5 Ovarian |  |
| DGGRRSS | EKVX-Lung |  |  |  |
| DGGRRTD |  |  |  | HCT-15 Colon |
| DGGSLVV |  |  |  | LOX-IMVI Melanoma |
| DGLVPVA |  |  | IGROV1 Ovarian |  |
| DGPSCVI |  |  | UACC62 Melanoma |  |
| DGPSGCS |  |  |  | SNB-75 CNS |
| DGSVLVE | Molt-4-Leukemia |  |  |  |
| DGVSPLW |  | TK-10 Renal |  |  |
| DGVSSDY |  |  |  | COLO-205-Colon |
| DHVSGSV |  | CAIK-1 Renal |  |  |
| DIALVSP | A549-Lung |  |  |  |

| Substance | Cell Line with which the peptide (and its tripeptide motif) is associated | Cell Line the peptide is associated with (peptide recovered from phage library selection on this NCI-60 cell line) | Cell Line (NCI-60 cell line the peptide and its motif are associated with) | Cell Line (NCI-60 cell line the peptide is associated with) |
| --- | --- | --- | --- | --- |
| DLDGRVV |  |  |  | COLO-205-Colon |
| DLGLRPV | Molt-4-Leukemia |  |  |  |
| DLGSVQH |  |  |  | HT-29 Colon |
| DLLRYLA | H322-Lung |  |  |  |
| DLRLSFP |  |  | UACC 257 Melanoma |  |
| DLRRAGS |  |  |  | SW620-Colon |
| DLVGRVR |  | BT-549 Breast |  |  |
| DNCERGV |  |  | UACC62 Melanoma |  |
| DNDGARG |  |  |  | COLO-205-Colon |
| DPRGLRV | HL-60-Leukemia |  |  |  |
| DQQEAGS |  |  | 786-0 Renal |  |
| DRASSWA |  |  | A498 Renal |  |
| DRFGSSA |  | ACHN Renal |  |  |
| DRGLGMS |  |  | 786-0 Renal |  |
| DRGVPGL | HL-60-Leukemia |  |  |  |
| DRQLAGR |  | HS 578 T Breast |  |  |
| DRYMLRS | H460-Lung |  |  |  |
| DSGLVGG |  |  |  | LOX-IMVI Melanoma |
| DTLASLR |  |  |  | HT-29 Colon |
| DTLRSQW |  |  |  | HCT-15 Colon |
| DTPAGRL |  | MDA-MB-231 Breast |  |  |
| DTPSAVS |  |  |  | SF-268 CNS |
| DVETRGS | CCRF-CEM Leukemia |  |  |  |

| Substance | Cell Line with which the peptide (and its tripeptide motif) is associated | Cell Line the peptide is associated with (peptide recovered from phage library selection on this NCI-60 cell line) | Cell Line (NCI-60 cell line the peptide and its motif are associated with) | Cell Line (NCI-60 cell line the peptide is associated with) |
| --- | --- | --- | --- | --- |
| DVHARGD |  | NCI/ADR-RES Breast |  |  |
| DVIARGW |  |  | UACC 257 Melanoma |  |
| DVPGVRF | EKVX-Lung |  |  |  |
| DVRAVSS | EKVX-Lung |  |  |  |
| DVRGRVW | H460-Lung |  |  |  |
| DVSGRVP | HL-60-Leukemia |  |  |  |
| DVVGVLK |  |  |  | SF-268 CNS |
| DVWVAVS |  |  | OVCAR-4 Ovarian |  |
| DWGRSSF | A549-Lung |  |  |  |
| DWGSRGV |  | MDA-MB-231 Breast |  |  |
| DWRRRAV |  |  |  | HCT-15 Colon |
| DWVCRAS |  |  |  | HT-29 Colon |
| DWVGVLM |  |  | UACC62 Melanoma |  |
| DWWAGVR | CCRF-CEM Leukemia |  |  |  |
| DYVGAGT |  |  | DU-145 Prostate |  |
| EADPGAV |  |  | UACC 257 Melanoma |  |
| EAGPRGV |  | BT-549 Breast |  |  |
| EAGVRLN |  |  | OVCAR-4 Ovarian |  |
| EAVSGRR |  | HS 578 T Breast |  |  |
| EAVSRGS | K-562-Leukemia |  |  |  |
| EFAVAGR | SR Leukemia |  |  |  |
| EFTRRAS | A549-Lung |  |  |  |
| EGARASD | Hop-92-Lung |  |  |  |

| Substance | Cell Line with which the peptide (and its tripeptide motif) is associated | Cell Line the peptide is associated with (peptide recovered from phage library selection on this NCI-60 cell line) | Cell Line (NCI-60 cell line the peptide and its motif are associated with) | Cell Line (NCI-60 cell line the peptide is associated with) |
| --- | --- | --- | --- | --- |
| EGGRTHW |  |  |  | HT-29 Colon |
| EGLVSVV | Molt-4-Leukemia |  |  |  |
| EGLVVFE |  |  |  | SNB-19 CNS; also recorded: SF-539 CNS |
| EGRLMLA |  |  | MALME-3M Melanoma |  |
| EGSGVDC | RPMI-8226-Leukemia |  |  |  |
| EGSVDAH |  |  |  | SW620-Colon |
| EGTSGSV |  |  |  | KM-12C Colon |
| EGVRGVF |  | A498 Renal | A498 Renal |  |
| EHPAGGM | A549-Lung |  |  |  |
| EHYRLRS |  |  |  | HT-29 Colon |
| ELGLRVP |  |  | OVCAR-8 Ovarian |  |
| ELHPRGV | K-562-Leukemia |  |  |  |
| ELRRLLS |  | TK-10 Renal |  |  |
| ELWASLG |  |  |  | HT-29 Colon |
| EMGSSRG |  |  |  | HT-29 Colon |
| EPDGVRS | CCRF-CEM Leukemia |  |  |  |
| EQLSGVR | CCRF-CEM Leukemia |  |  |  |
| ERARGYP | SR Leukemia |  |  |  |
| ERASQTA | K-562-Leukemia |  |  |  |
| ERGSPSR | H460-Lung |  |  |  |
| ERGVFVY |  | T-47D Breast |  |  |
| ERVSAAV |  |  | OVCAR-3 Ovarian |  |
| ERYYLRS |  | MCF-7 Breast |  |  |

| Substance | Cell Line with which the peptide (and its tripeptide motif) is associated | Cell Line the peptide is associated with (peptide recovered from phage library selection on this NCI-60 cell line) | Cell Line (NCI-60 cell line the peptide and its motif are associated with) | Cell Line (NCI-60 cell line the peptide is associated with) |
| --- | --- | --- | --- | --- |
| ESARGAL |  |  | OVCAR-4 Ovarian |  |
| ESATGVS |  | MDA-MB-231 Breast |  |  |
| EVASGLV |  |  | SK-MEL-2 Melanoma |  |
| EVGGGLT | CCRF-CEM Leukemia |  |  |  |
| EVIGSGI | A549-Lung |  |  |  |
| EVLVSGD | Molt-4-Leukemia |  |  |  |
| EVLWGGR |  |  |  | SF-268 CNS |
| EVRSRGS | EKVX-Lung |  |  |  |
| EWHAASG |  |  | SK-MEL-2 Melanoma |  |
| FAAGAGS |  |  | 786-0 Renal |  |
| FAASGVL |  |  | UACC 257 Melanoma |  |
| FAGAGVR |  |  | SK-OV-3-3 Ovarian |  |
| FAGGSTD | HL-60-Leukemia |  |  |  |
| FAGRAPR |  | ACHN Renal |  |  |
| FAGRVPS | RPMI-8226-Leukemia |  |  |  |
| FAGYGVL |  |  |  | SNB-19 CNS; also recorded: SF-539 CNS |
| FAQRRVS |  | SN12C Renal |  |  |
| FAWGGRG | K-562-Leukemia |  |  |  |
